{
  "source": "patent US5879902A",
  "about": "“Diagnostic methods and kits for the evaluation of the sympathetic nervous system function” (Neuro-Biotech Inc., priority 1997, dated 1999)",
  "molecules": {"B1": {"name": "dopamine-β-hydroxylase (Homo sapiens) (protein)", "chain": "SAPRESPLPYHIPLDPEGSLELSWNVSYTQEAIHFQLLVRRLKAGVLFGMSDRGELENADLVVLWTDGDTAYFADAWSDQKGQIHLDPQQDYQLLQVQRTPEGLTLLFKRPFGTCDPKDYLIEDGTVHLVYGILEEPFRSLEAINGSGLQMGLQRVQLLKPNIPEPELPSDACTMEVQAPNIQIPSQETTYWCYIKELPKGFSRHHIIKYEPIVTKGNEALVHHMEVFQCAPEMDSVPHFSGPCDSKMKPDRLNYCRHVLAAWALGAKAFYYPEEAGLAFGGPGSSRYLRLEVHYHNPLVIEGRNDSSGIRLYYTAKLRRFNAGIMELGLVYTPVMAIPPRETAFILTGYCTDKCTQLALPPSGIHIFASQLHTHLTGRKVVTVLVRDGREWEIVNQDNHYSPHFQEIRMLKKVVSVHPGDVLITSCTYNTEDRELATVGGFGILEEMCVNYVHYYPQTQLELCKSAVDAGFLQKYFHLINRFNNEDVCTCPQASVSQQFTSVPWNSFNRDVLKALYSFAPISMHCNKSSAVRFQGEWNLQPLPKVISTLEEPTPQCPTSQGRSPAGPTVVSIGGGKG", "notes": "from tissue; host or cells: human serum, unpurified (pool of 25 subjects; also individual subjects)"}, "B2": {"name": "Catalase: beef liver catalase, added for peroxide degradation (protein, UniProt P00432 2-527, looked up)", "Catalase": "ADNRDPASDQMKHWKEQRAAQKPDVLTTGGGNPVGDKLNSLTVGPRGPLLVQDVVFTDEMAHFDRERIPERVVHAKGAGAFGYFEVTHDITRYSKAKVFEHIGKRTPIAVRFSTVAGESGSADTVRDPRGFAVKFYTEDGNWDLVGNNTPIFFIRDALLFPSFIHSQKRNPQTHLKDPDMVWDFWSLRPESLHQVSFLFSDRGIPDGHRHMNGYGSHTFKLVNANGEAVYCKFHYKTDQGIKNLSVEDAARLAHEDPDYGLRDLFNAIATGNYPSWTLYIQVMTFSEAEIFPFNPFDLTKVWPHGDYPLIPVGKLVLNRNPVNYFAEVEQLAFDPSNMPPGIEPSPDKMLQGRLFAYPDTHRHRLGPNYLQIPVNCPYRARVANYQRDGPMCMMDNQGGAPNYYPNSFSAPEHQPSALEHRTHFSGDVQRFNSANDDNVTQVRTFYLKVLNEEQRKRLCENIAGHLKDAQLFIQKKAVKNFSDVHPEYGSRIQALLDKYNEEKPKNAVHTYVQHGSHLSAREKANL"}},
  "type_in_all_cases": "biochemical",
  "key": {"dopamine-β-hydroxylase [1]": {"target": "T1, dopamine-β-hydroxylase (Homo sapiens, UniProt P09172)", "T1 sequence (P09172 40-617 limits assumed)": "B1 chain", "assay": "Specific DBH activity in unpurified human serum (octopamine formed from tyramine, spectrophotometric)", "settings": "for % Control (DBH activity with the named component omitted) / Activity (DBH enzyme activity with the named component omitted): named ingredient omitted from reaction mixture, pool of 25 normal human serum; for Activity (DBH enzyme activity with the named component omitted): 37° C., mean ± SEM of at least 10 determinations; for decrease in enzyme activity on omission of the component from the incubation medium: component omitted; for saturation point (concentration saturating the enzyme activity): 20 μL human serum, tyramine varied at 10 mM ascorbate, ascorbate varied at 20 mM tyramine; for apparent Vmax: pH 5.0, Woolf's graphical method", "description": "(§1) The kinetic parameters and biochemical properties were done on a pool of 25 subjects randomly distributed between males and females. An appropriate aliquot of serum was taken as enzyme source and diluted in ice-cold deionized water to a final volume of 400 μL, prior the preincubation period. For individual measurements of DBH enzyme activity, 20 μL of human serum was routinely used. For the ultrafiltration method, an aliquot of a pool of serum was passed through a DIAFLO™ Ultrafilter membrane, type YM100, and 40 μL of the ultrafiltrate was used to measure the enzyme activity (FIG. 9).\nThe specific DBH activity was determined by the method described by Roberge and Charbonneau (Roberge AG et al., Nutr Res, 1985, 5:57-63). The preincubation mixture contained 0.2M sodium acetate buffer (pH 5), 15 mM N-ethylmaleimide (NEM) and the enzyme source (from the serum sample) and was carried out at 25° C. for 10 min in an atmosphere of air using a metabolic shaker (Dubnoff). To the preincubated enzymatic source were added to a final volume of 1 mL: 10 mM fumarate, […], 2500 units catalase and 1 mM pargyline, as monoamide oxidasae inhibitor. Blanks and internal standards were set up in the same manner and contained 20 mM octopamine instead of the enzyme source. The incubation was started with 20 mM tyramine and conducted at 37° C. for 30 min in an atmosphere of air using a metabolic shaker (Dubnoff). The reaction was stopped on ice by adding 300 μL of 3M trichloroacetic acid to each tube and immediately centrifuged at 2500 g of at 4° C. for 10 min. The supernatant was decanted on a DOWEX™ 50×4-400 resin column and the acid eluted with 3M NH4 OH. The octopamine formed was derived to p-hydroxybenzaldehyde by periodate cleavage which was isolated by successive solvent extractions with ether and ammonia. The last aqueous phase was assayed by a dual-wavelenght spectrophotometer (333-360 nm). Specific activity was expressed […] of octopamine formed per mL per min. Recovery of octopamine added to the blank incubation mixture was 90±2%. L-tyramine was used as substrate and an aliquot of unpurified serum was taken as the enzyme source, usually 20 μL.\nApparent Michaelis constant (Km) and apparent maximum velocity (Vmax) were determined following the Woolf's graphical procedure and the usual method of Lineweaver and Burk. Statistical estimation related to enzyme kinetics was done according to Wilkinson."}, "dopamine-β-hydroxylase [2]": {"target": "T1, dopamine-β-hydroxylase", "assay": "DBH activity in ultrafiltrate of human serum (DIAFLO YM100 membrane)", "set-up": "an aliquot of a pool of serum was passed through a DIAFLO™ Ultrafilter membrane, type YM100; from tissue; host or cells: ultrafiltrate of pooled human serum", "settings": "with the named substance in the medium (15 mM NEM; copper up to 4 μM)", "description": "as §1\n(§2) The specific DBH activity was determined by the method described by Roberge and Charbonneau (Roberge AG et al., Nutr Res, 1985, 5:57-63). The preincubation mixture contained 0.2M sodium acetate buffer (pH 5), 15 mM N-ethylmaleimide (NEM) and the enzyme source (from the serum sample) and was carried out at 25° C. for 10 min in an atmosphere of air using a metabolic shaker (Dubnoff). To the preincubated enzymatic source were added to a final volume of 1 mL: 10 mM fumarate, […], 2500 units catalase and 1 mM pargyline, as monoamide oxidasae inhibitor. […]\nThe relationship between copper and NEM in the medium was studied in an aliquot of serum passed through a DIAFLO™ Ultrafilter membrane, type YM100, and the enzyme activity was measured in the ultrafiltrate. […]"}, "dopamine-β-hydroxylase [3]": {"target": "T1, dopamine-β-hydroxylase", "assay": "DBH activity in human EDTA-treated blood", "description": "(§3) The specific DBH activity was determined by the method described by Roberge and Charbonneau (Roberge AG et al., Nutr Res, 1985, 5:57-63). The preincubation mixture contained 0.2M sodium acetate buffer (pH 5), 15 mM N-ethylmaleimide (NEM) and the enzyme source (from the serum sample) and was carried out at 25° C. for 10 min in an atmosphere of air using a metabolic shaker (Dubnoff). To the preincubated enzymatic source were added to a final volume of 1 mL: 10 mM fumarate, […], 2500 units catalase and 1 mM pargyline, as monoamide oxidasae inhibitor. Blanks and internal standards were set up in the same manner and contained 20 mM octopamine instead of the enzyme source. The incubation was started with 20 mM tyramine and conducted at 37° C. for 30 min in an atmosphere of air using a metabolic shaker (Dubnoff). The reaction was stopped on ice by adding 300 μL of 3M trichloroacetic acid to each tube and immediately centrifuged at 2500 g of at 4° C. for 10 min. […]\n(§4) Apparent Michaelis constant (Km) and apparent maximum velocity (Vmax) were determined following the Woolf's graphical procedure and the usual method of Lineweaver and Burk. […]\n(§5) In FIG. 7A, the specific DBH enzyme activity was measured in human blood treated with EDTA, a copper chelator, in respect to pH dependence, to copper content added in the incubation medium and to kinetic parameters. […]"}, "[4]": {"substrate": "NCCc1ccc(O)cc1", "assay": "Specific DBH activity in unpurified human serum (octopamine formed from tyramine, spectrophotometric)", "settings": "other: human serum, pH 5.0, Woolf's graphical method", "description": "as §1, §2, §4"}, "[5]": {"substrate": "NCCc1ccc(O)cc1", "assay": "DBH activity in human EDTA-treated blood", "settings": "other: EDTA-treated blood, pH 5.8, Lineweaver and Burk", "description": "as §3, §4, §5"}},
  "note": "“And” between values parts separate entries of the source, which are not always exact repeats. Equal entries are not always repeated. Structures can show the parent of a compound that is named as a salt.",
  "data": [
    {"molecule": "O=C(O)/C=C/C(=O)O", "note": "[Furnarate, disodium fumarate]", "values": [
      {"measurement": "% Control (DBH activity with the named component omitted)", "setting": "dopamine-β-hydroxylase [1]", "value": 88, "unit": "%"},
      {"measurement": "Activity (DBH enzyme activity with the named component omitted)", "setting": "dopamine-β-hydroxylase [1]", "value": "47.5 ± 1.00 nmol of octopamine formed per mL per min"},
      {"measurement": "increase in enzyme activity by addition of fumarate", "setting": "dopamine-β-hydroxylase [1]; whatever the concentrations used, up to 40 mM", "value": 12, "unit": "%"}
    ]},
    {"molecule": "CCN1C(=O)C=CC1=O", "note": "[N-ethylmaleimide (NEM), N-ethylmaleimide]", "values": [
      {"measurement": "enzyme activity in ultrafiltrate", "setting": "dopamine-β-hydroxylase [2]", "value": "52±0.7 nmol of octopamine formed per mg of protein per hour"},
      {"measurement": "decrease in enzyme activity on omission of the component from the incubation medium", "setting": "dopamine-β-hydroxylase [1]; human serum", "value": "36% and 66%"},
      {"measurement": "% Control (DBH activity with the named component omitted)", "setting": "dopamine-β-hydroxylase [1]", "value": 66, "unit": "%"},
      {"measurement": "Activity (DBH enzyme activity with the named component omitted)", "setting": "dopamine-β-hydroxylase [1]", "value": "35.6 ± 0.39 nmol of octopamine formed per mL per min"}
    ]},
    {"molecule": "O=C1O[C@H]([C@@H](O)CO)C(O)=C1O", "note": "[ascorbate, ascorbic acid]", "values": [
      {"measurement": "saturation point (concentration saturating the enzyme activity)", "setting": "dopamine-β-hydroxylase [1]", "value": 10, "unit": "mM"},
      {"measurement": "decrease in enzyme activity on omission of the component from the incubation medium", "setting": "dopamine-β-hydroxylase [1]; human serum", "value": 96, "unit": "%"},
      {"measurement": "Km value lower than for tyramine (fold)", "setting": "dopamine-β-hydroxylase [1]; human serum", "value": 10, "unit": "times"},
      {"measurement": "apparent Vmax", "setting": "dopamine-β-hydroxylase [1]; human serum", "value": "56 nmol of octopamine formed per mL per min"},
      {"measurement": "% Control (DBH activity with the named component omitted)", "setting": "dopamine-β-hydroxylase [1]", "value": 4, "unit": "%"},
      {"measurement": "Activity (DBH enzyme activity with the named component omitted)", "setting": "dopamine-β-hydroxylase [1]", "value": "2.2 ± 0.19 nmol of octopamine formed per mL per min"}
    ]},
    {"molecule": "[Cu]", "note": "[copper]", "values": [
      {"measurement": "enzyme activity in ultrafiltrate", "setting": "dopamine-β-hydroxylase [2]", "value": "51±0.56 nmol of octopamine formed per mg of protein per hour"},
      {"measurement": "effect of exogenous copper on EDTA inhibition", "setting": "dopamine-β-hydroxylase [3]; copper from 0 to 100 μM in the medium", "value": "progressively reversed"},
      {"measurement": "maximum decrease in enzyme activity", "setting": "dopamine-β-hydroxylase [1]; 20 μM exogenous copper, with 15 mM NEM in the medium", "value": 90, "unit": "%"},
      {"measurement": "exogenous copper content above which enzyme activity decreases significantly", "setting": "dopamine-β-hydroxylase [1]; with 15 mM NEM in the medium", "value": "higher than 2 μM"},
      {"measurement": "exogenous copper concentration above which enzyme activity decreases significantly", "setting": "dopamine-β-hydroxylase [1]; without NEM in the medium", "value": "higher than 4 μM"}
    ]},
    {"molecule": "NCCc1ccc(O)cc1", "note": "[tyramine, L-tyramine]", "values": [
      {"measurement": "Vmax", "setting": "dopamine-β-hydroxylase [3]; EDTA-treated blood, pH 5.8, Lineweaver and Burk", "value": "38.5 nmol of octopamine formed per mL per min"},
      {"measurement": "saturation point (concentration saturating the enzyme activity)", "setting": "dopamine-β-hydroxylase [1]", "value": 20, "unit": "mM"},
      {"measurement": "apparent Vmax", "setting": "dopamine-β-hydroxylase [1]; human serum", "value": "72 nmol of octopamine formed per mL per min"}
    ]},
    {"molecule": "B1", "values": [
      {"measurement": "Km", "setting": "[4]", "value": 8, "unit": "mM"},
      {"measurement": "Km", "setting": "[5]", "value": 2.4, "unit": "mM"}
    ]},
    {"molecule": "B2", "values": [
      {"measurement": "catalase amount up to which enzyme activity increases (then plateau till 4000 units)", "setting": "dopamine-β-hydroxylase [1]; human serum", "value": 2000, "unit": "units"},
      {"measurement": "% Control (DBH activity with the named component omitted)", "setting": "dopamine-β-hydroxylase [1]", "value": 10, "unit": "%"},
      {"measurement": "Activity (DBH enzyme activity with the named component omitted)", "setting": "dopamine-β-hydroxylase [1]", "value": "5.6 ± 0.45 nmol of octopamine formed per mL per min"}
    ]}
  ]
}
